For three compounds, remaining binding results are on record in article PMC6437697 (Journal of Medicinal Chemistry, 2019).

Holding throughout (test): KINOMEscan
Holding throughout (format): binding
Conditions in all cases: read-out: % control activity remaining

The target in one assay is T1, FGR (Homo sapiens, UniProt P09769).
T1 construct: purchased Eurofins DiscoverX KINOMEscan

The target of the next assay is T2, ASK1 (Homo sapiens, UniProt Q99683).
T2 construct: purchased Eurofins DiscoverX KINOMEscan
T2 sequence (Q99683 1-1374): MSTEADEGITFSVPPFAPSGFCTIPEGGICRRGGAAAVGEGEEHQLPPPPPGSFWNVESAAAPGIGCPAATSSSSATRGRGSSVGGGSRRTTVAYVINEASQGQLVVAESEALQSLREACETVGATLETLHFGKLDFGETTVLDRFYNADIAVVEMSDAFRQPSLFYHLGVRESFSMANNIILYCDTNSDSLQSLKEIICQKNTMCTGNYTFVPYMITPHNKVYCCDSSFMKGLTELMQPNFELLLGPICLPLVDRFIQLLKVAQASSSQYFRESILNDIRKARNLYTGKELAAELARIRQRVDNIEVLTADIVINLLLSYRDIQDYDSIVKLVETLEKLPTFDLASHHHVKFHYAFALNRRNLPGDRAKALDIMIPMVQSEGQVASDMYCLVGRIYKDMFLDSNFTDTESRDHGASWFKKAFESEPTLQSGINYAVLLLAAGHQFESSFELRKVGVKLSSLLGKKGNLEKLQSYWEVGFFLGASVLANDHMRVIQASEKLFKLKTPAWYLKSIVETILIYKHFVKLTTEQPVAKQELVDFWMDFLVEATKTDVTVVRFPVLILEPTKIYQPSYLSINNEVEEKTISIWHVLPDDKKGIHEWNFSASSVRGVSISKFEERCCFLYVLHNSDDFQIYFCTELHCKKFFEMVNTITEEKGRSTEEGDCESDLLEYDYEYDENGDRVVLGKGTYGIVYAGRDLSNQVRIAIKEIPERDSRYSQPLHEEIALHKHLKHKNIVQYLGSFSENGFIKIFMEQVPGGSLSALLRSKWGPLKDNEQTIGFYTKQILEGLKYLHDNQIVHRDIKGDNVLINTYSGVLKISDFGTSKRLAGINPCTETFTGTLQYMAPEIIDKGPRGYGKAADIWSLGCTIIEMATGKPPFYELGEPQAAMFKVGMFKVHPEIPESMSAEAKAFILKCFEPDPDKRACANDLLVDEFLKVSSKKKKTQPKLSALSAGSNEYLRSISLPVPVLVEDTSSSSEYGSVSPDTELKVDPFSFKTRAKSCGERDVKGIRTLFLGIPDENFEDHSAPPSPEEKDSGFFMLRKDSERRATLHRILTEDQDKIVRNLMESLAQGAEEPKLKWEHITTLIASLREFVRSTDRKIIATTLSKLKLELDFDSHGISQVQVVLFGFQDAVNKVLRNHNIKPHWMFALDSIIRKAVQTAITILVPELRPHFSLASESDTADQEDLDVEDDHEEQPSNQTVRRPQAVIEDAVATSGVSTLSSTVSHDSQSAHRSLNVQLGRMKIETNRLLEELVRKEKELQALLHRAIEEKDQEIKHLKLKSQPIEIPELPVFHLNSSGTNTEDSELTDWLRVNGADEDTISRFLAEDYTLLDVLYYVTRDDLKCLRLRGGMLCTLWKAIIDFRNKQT

For a further assay, the target named is T3, MET(Y1235D) (Homo sapiens, UniProt P08581, Y1235D).
T3 construct: purchased Eurofins DiscoverX KINOMEscan

The next assay concerns the target T4, PRKG1 (Homo sapiens, UniProt Q13976).
T4 construct: purchased Eurofins DiscoverX KINOMEscan
T4 sequence (Q13976 1-671): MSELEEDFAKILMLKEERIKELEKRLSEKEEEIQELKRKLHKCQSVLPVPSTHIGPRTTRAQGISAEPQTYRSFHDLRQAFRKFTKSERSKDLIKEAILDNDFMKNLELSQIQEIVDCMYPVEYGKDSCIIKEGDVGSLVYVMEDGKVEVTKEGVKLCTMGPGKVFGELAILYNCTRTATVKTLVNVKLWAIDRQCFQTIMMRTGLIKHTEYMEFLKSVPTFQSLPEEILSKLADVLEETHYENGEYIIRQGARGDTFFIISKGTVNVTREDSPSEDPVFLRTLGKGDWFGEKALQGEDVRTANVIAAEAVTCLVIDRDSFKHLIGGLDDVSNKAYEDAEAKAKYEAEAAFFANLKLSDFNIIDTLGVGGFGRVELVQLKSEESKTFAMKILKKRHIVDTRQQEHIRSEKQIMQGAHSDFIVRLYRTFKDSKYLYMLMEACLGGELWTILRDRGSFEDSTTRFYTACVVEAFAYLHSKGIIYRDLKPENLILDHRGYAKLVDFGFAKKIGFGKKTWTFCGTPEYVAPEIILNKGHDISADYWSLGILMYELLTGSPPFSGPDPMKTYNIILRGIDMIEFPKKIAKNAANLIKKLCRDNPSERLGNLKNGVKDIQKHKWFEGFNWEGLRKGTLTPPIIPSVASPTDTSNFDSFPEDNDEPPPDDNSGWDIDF

The next assay has as its target T5, IKK-epsilon (Homo sapiens, UniProt Q14164).
T5 construct: purchased Eurofins DiscoverX KINOMEscan
T5 sequence (Q14164 1-716): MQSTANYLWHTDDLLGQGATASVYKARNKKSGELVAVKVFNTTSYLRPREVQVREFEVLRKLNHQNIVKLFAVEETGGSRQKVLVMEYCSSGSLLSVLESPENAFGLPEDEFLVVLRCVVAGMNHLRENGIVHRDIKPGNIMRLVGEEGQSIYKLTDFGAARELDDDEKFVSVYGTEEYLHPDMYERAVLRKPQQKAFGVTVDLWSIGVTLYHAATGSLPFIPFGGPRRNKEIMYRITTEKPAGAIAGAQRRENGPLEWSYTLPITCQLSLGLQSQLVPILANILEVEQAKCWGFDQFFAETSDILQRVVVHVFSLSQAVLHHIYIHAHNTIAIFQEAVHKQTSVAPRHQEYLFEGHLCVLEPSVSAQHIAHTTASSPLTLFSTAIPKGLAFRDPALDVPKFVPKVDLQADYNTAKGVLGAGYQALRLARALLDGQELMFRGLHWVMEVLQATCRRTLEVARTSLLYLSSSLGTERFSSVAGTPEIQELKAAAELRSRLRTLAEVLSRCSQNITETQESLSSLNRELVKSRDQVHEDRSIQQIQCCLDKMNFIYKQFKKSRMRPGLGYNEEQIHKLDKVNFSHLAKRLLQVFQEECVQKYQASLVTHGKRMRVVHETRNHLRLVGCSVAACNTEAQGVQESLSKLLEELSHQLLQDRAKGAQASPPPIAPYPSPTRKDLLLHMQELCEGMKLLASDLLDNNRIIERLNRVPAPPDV

The target in another assay is T6, DDR1 (Homo sapiens, UniProt Q08345).
T6 construct: purchased Eurofins DiscoverX KINOMEscan
T6 sequence (Q08345 19-913): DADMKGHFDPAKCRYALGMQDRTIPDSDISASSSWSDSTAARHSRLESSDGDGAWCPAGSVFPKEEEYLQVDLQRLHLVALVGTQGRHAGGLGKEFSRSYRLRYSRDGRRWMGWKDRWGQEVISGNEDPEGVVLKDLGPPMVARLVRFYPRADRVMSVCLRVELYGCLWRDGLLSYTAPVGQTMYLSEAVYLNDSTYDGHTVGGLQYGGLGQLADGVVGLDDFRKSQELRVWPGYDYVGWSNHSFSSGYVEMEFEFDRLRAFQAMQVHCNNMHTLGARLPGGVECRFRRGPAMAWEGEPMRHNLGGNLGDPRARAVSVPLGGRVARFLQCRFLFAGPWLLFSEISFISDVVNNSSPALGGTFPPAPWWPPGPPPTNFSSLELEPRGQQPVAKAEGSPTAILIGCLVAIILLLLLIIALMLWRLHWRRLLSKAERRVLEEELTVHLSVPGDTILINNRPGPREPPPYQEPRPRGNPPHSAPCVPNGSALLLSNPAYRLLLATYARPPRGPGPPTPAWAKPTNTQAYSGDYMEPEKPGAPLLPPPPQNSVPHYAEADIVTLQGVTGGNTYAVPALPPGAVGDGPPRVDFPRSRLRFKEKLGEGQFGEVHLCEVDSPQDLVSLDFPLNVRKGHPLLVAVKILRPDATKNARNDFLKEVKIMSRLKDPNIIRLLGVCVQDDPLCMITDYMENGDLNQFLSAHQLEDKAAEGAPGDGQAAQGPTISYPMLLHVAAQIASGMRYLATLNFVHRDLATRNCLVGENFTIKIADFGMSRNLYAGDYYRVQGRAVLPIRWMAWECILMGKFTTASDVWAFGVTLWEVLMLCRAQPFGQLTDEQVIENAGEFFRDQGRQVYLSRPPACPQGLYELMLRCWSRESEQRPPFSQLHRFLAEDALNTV

T3 sequence (P08581 25-1390 Y1235D): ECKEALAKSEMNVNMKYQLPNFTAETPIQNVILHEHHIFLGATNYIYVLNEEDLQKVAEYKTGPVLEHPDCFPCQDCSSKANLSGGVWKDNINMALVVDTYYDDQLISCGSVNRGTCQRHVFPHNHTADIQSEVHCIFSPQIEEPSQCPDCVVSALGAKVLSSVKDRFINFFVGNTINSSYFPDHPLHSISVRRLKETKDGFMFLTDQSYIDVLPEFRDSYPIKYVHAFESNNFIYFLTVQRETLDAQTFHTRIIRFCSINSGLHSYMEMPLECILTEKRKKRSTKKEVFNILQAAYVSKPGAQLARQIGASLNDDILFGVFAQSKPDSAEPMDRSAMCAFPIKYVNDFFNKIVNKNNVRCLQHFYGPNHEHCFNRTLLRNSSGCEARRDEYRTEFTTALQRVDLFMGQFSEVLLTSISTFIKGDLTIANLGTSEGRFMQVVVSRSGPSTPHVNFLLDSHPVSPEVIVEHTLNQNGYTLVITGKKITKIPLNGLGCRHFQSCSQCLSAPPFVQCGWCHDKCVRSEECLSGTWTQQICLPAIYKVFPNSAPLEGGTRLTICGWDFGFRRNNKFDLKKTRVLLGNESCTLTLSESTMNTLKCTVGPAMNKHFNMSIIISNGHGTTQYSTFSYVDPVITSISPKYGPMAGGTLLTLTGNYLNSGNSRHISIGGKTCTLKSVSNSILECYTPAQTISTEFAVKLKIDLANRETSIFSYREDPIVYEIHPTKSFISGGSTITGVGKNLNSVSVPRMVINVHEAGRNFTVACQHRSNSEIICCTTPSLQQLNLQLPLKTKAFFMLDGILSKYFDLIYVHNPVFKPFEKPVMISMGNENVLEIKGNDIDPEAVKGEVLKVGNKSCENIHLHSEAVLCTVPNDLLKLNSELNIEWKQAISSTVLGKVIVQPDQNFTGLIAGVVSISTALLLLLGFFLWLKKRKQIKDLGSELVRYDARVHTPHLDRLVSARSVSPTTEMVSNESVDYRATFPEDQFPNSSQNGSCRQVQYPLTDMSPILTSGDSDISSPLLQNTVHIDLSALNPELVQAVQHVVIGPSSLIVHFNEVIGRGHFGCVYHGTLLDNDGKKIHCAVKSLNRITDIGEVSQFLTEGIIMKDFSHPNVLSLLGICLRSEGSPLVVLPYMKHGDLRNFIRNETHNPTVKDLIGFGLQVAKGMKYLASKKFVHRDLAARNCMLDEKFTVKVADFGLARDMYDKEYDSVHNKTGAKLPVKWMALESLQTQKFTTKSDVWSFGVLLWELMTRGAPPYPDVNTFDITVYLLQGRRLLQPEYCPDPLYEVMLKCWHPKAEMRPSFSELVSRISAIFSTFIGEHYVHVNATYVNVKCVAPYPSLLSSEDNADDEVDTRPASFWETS
T1 sequence (P09769 whole entry): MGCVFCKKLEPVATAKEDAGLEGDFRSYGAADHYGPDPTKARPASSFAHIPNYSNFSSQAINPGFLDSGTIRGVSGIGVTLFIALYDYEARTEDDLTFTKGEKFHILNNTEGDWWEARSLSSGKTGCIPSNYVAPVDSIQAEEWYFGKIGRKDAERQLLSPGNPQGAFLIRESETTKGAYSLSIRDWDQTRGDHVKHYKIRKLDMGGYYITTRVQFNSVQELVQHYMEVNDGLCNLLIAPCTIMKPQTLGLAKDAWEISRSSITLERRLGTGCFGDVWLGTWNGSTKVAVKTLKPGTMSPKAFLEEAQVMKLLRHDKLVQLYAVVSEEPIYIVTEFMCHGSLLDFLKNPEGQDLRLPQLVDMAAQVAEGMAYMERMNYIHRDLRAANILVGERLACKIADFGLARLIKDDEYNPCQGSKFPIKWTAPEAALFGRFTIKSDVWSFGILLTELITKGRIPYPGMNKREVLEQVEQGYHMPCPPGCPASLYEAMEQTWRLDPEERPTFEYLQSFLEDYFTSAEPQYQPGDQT

`Clc1cc(NCC2CC2)c2ncc(-c3ccc4[nH]ncc4c3)n2n1` [compound 2, 6-Chloro-N-(cyclopropylmethyl)-3-(1H-indazol-5-yl)imidazo[1,2-b]pyridazin-8-amine]: the remaining binding at 1 µM came out at 75% on FGR; 70% at ASK1; 100% at MET(Y1235D); 84% on PRKG1; 94% at IKK-epsilon; 22% at DDR1.
Consider `O=C(CN1CCOCC1)N[C@H]1CC[C@H](Nc2cc(Cl)nn3c(-c4ccc5[nH]ncc5c4)cnc23)CC1` [compound 26], for which the remaining binding at 1 µM at FGR was 93%; at ASK1, 100%; at MET(Y1235D) it was 97%; on PRKG1, 32%; at IKK-epsilon, 100%; at DDR1, 100%.
In the case of `CN1CCC(CNc2cc(Cl)nn3c(-c4cc5nc(Nc6ccccc6)[nH]c5cc4F)cnc23)CC1` [compound 31, 6-Chloro-3-(6-fluoro-2-(phenylamino)-1H-benzo[d]imidazol-5-yl)-N-((1-methylpiperidin-4-yl)methyl)imidazo[1,2-b]pyridazin-8-amine], the remaining binding at 1 µM is 100% at FGR; 100% at ASK1; 99% on MET(Y1235D); 83% on PRKG1; 78% at IKK-epsilon; 96% at DDR1.
